Columns and labels:
[1] = Solubility of API CLX-155 in organic solvents; format: physicochemical
[2] = Moisture and thermal sensitivity of CLX-155; format: physicochemical
Description: Dry granulation is also referred as pre-compression or double compression and is an agglomeration process designed to improve the flow and compression characteristics of powders that would otherwise have poor flow &/or compressibility. The process involves compaction of powder particles into larger pieces or compacts which are subsequently broken down into granules that can be further processed into dosage forms. Dry granulation is suitable for the compound which is sensitive to moisture and temperature.

Solubility ([1]; in Acetonitrile): Slightly Soluble | Solubility ([1]; in Methanol): Freely soluble | Stability towards moisture [2]: moisture sensitive | Thermal stability [2]: thermolabile
SMILES: CCCCCCCC(=O)Nc1nc(=O)n([C@@H]2O[C@H](C)[C@@H](OC(C)=O)[C@H]2OC(C)=O)cc1F [CLX-155, (2R, 3R, 4R, 5R)-2-(5-Fluoro-4-octanamido 2-oxopyrimidine-1(2H)-yl)-5-methyl-tetrahydrofuran-3,4-diyl-diacetate]

From patent US20250186435A1, “PHARMACEUTICAL FORMULATIONS AND THEIR PREPARATIONS FOR TREATMENT OF CANCER” (priority 2020, published 2025)
